Measured values as given in ChEMBL document CHEMBL3868618, “Synthesis and biological evaluation of chalcone derivatives containing aminoguanidine or acylhydrazone moieties” (Bioorg Med Chem Lett, 2016).
Converted amounts (≈) assume the structure as drawn.

Legend:
Staphylococcus aureus [1] = experiment: Antibacterial activity against Staphylococcus aureus 503 measured after 24 hrs by two-fold serial dilution method; format: functional; conditions: Staphylococcus aureus, 503, 24 h
Staphylococcus aureus [2] = experiment: Antibacterial activity against Staphylococcus aureus 4220 measured after 24 hrs by two-fold serial dilution method; format: functional; conditions: Staphylococcus aureus, 4220, 24 h
Staphylococcus aureus [3] = experiment: Antibacterial activity against Staphylococcus aureus 209 measured after 24 hrs by two-fold serial dilution method; format: functional; conditions: Staphylococcus aureus, 209, 24 h
Streptococcus mutans = experiment: Antibacterial activity against Streptococcus mutans 3065 measured after 24 hrs by two-fold serial dilution method; format: functional; conditions: Streptococcus mutans, 3065, 24 h
Escherichia coli [4] = experiment: Antibacterial activity against Escherichia coli 1924 measured after 24 hrs by two-fold serial dilution method; format: functional; conditions: Escherichia coli, 1924, 24 h
Escherichia coli [5] = experiment: Antibacterial activity against Escherichia coli 1356 measured after 24 hrs by two-fold serial dilution method; format: functional; conditions: Escherichia coli, 1356, 24 h
Salmonella typhimurium [6] = experiment: Antibacterial activity against Salmonella typhimurium 1926 measured after 24 hrs by two-fold serial dilution method; format: functional, Salmonella enterica subsp. enterica serovar Typhimurium; conditions: Salmonella enterica, 1926, 24 h
Pseudomonas aeruginosa = experiment: Antibacterial activity against Pseudomonas aeruginosa 2742 measured after 24 hrs by two-fold serial dilution method; format: functional; conditions: Pseudomonas aeruginosa, 2742, 24 h
Candida albicans [7] = experiment: Antifungal activity against Candida albicans 7535 measured after 24 hrs by two-fold serial dilution method; format: functional; conditions: Candida albicans, 7535, 24 h
Staphylococcus aureus [8] = experiment: Antibacterial activity against methicillin-resistant Staphylococcus aureus 3167 measured after 24 hrs by two-fold serial dilution method; format: functional; conditions: Staphylococcus aureus, 3167, 24 h
Staphylococcus aureus [9] = experiment: Antibacterial activity against methicillin-resistant Staphylococcus aureus 3506 measured after 24 hrs by two-fold serial dilution method; format: functional; conditions: Staphylococcus aureus, 3506, 24 h
Staphylococcus aureus [10] = experiment: Antibacterial activity against quinolone-resistant Staphylococcus aureus 3505 measured after 24 hrs by two-fold serial dilution method; format: functional; conditions: Staphylococcus aureus, 3505, 24 h
Staphylococcus aureus [11] = experiment: Antibacterial activity against quinolone-resistant Staphylococcus aureus 3519 measured after 24 hrs by two-fold serial dilution method; format: functional; conditions: Staphylococcus aureus, 3519, 24 h
Mus musculus [12] = experiment: Antiinflammatory activity in mouse assessed as inhibition of xylene-induced ear edema at 100 mg/kg, ip administered 30 mins before xylene challenge measured after 30 mins relative to DMSO-control; format: functional
Salmonella typhimurium [13] = experiment: Potency index, ratio of gatifloxacin MIC to compound MIC against Salmonella typhimurium 1926; format: functional, Salmonella enterica subsp. enterica serovar Typhimurium
Salmonella typhimurium [14] = experiment: Potency index, ratio of moxifloxin MIC to compound MIC against Salmonella typhimurium 1926; format: functional, Salmonella enterica subsp. enterica serovar Typhimurium
Candida albicans [15] = experiment: Potency index, ratio of fluconazole MIC to compound MIC against Candida albicans 7535; format: functional
Mus musculus [16] = experiment: Antiinflammatory activity in mouse assessed as inhibition of xylene-induced ear edema at 100 mg/kg, po administered 1 hr before xylene challenge measured after 3 hrs; format: functional
Mus musculus [17] = experiment: Antiinflammatory activity in mouse assessed as inhibition of xylene-induced ear edema at 100 mg/kg, po administered 2 hrs before xylene challenge measured after 3 hrs; format: functional
Mus musculus [18] = experiment: Antiinflammatory activity in mouse assessed as inhibition of xylene-induced ear edema at 100 mg/kg, po administered 3 hrs before xylene challenge measured after 3 hrs; format: functional
Mus musculus [19] = experiment: Antiinflammatory activity in mouse assessed as inhibition of xylene-induced ear edema at 100 mg/kg, po administered 4 hrs before xylene challenge measured after 3 hrs; format: functional
Mus musculus [20] = experiment: Antiinflammatory activity in mouse assessed as inhibition of xylene-induced ear edema at 100 mg/kg, po administered 5 hrs before xylene challenge measured after 3 hrs; format: functional
Mus musculus [21] = experiment: Antiinflammatory activity in mouse assessed as inhibition of xylene-induced ear edema at 100 mg/kg, po administered 24 hrs before xylene challenge measured after 3 hrs; format: functional
Mus musculus [22] = experiment: Antiinflammatory activity in mouse assessed as inhibition of xylene-induced ear edema at 50 mg/kg, po administered 2 hrs before xylene challenge measured after 3 hrs; format: functional
Mus musculus [23] = experiment: Antiinflammatory activity in mouse assessed as inhibition of xylene-induced ear edema at 25 mg/kg, po administered 2 hrs before xylene challenge measured after 3 hrs; format: functional
[24] = Cytotoxicity against human HeLa cells assessed as reduction in cell viability measured after 24 hrs by MTT assay; format: toxicity, cell-based
[25] = Cytotoxicity against human Hep3B cells assessed as reduction in cell viability measured after 24 hrs by MTT assay; format: toxicity, cell-based, Hep 3B2
[26] = Cytotoxicity against human L02 cells assessed as reduction in cell viability measured after 24 hrs by MTT assay; format: toxicity, cell-based

SMILES | MIC (Staphylococcus aureus [1]) | MIC (Staphylococcus aureus [2]) | MIC (Staphylococcus aureus [3]) | MIC (Streptococcus mutans) | MIC (Escherichia coli [4]) | MIC (Escherichia coli [5]) | MIC (Salmonella typhimurium [6]) | MIC (Pseudomonas aeruginosa) | MIC (Candida albicans [7]) | MIC (Staphylococcus aureus [8]) | MIC (Staphylococcus aureus [9]) | MIC (Staphylococcus aureus [10]) | MIC (Staphylococcus aureus [11]) | inhibition in vivo at 100 mg/kg (Mus musculus [12]) | other results
N=C(N)N/N=C/c1ccc(/C=C/C(=O)c2cccc(Br)c2)cc1 | 2 µg/mL (≈ 5.39 µM) | 2 µg/mL (≈ 5.39 µM) | 2 µg/mL (≈ 5.39 µM) | 2 µg/mL (≈ 5.39 µM) | 2 µg/mL (≈ 5.39 µM) | 8 µg/mL (≈ 21.5 µM) | 1 µg/mL (≈ 2.69 µM) | 2 µg/mL (≈ 5.39 µM) | 2 µg/mL (≈ 5.39 µM) | 2 µg/mL (≈ 5.39 µM) | 2 µg/mL (≈ 5.39 µM) | 2 µg/mL (≈ 5.39 µM) | 4 µg/mL (≈ 10.8 µM) | 49.7% | Ratio (Salmonella typhimurium [13]): 1 - 2; Ratio (Salmonella typhimurium [14]): 1; Ratio (Candida albicans [15]): 2
COc1ccc2c(c1)c(CC(=O)O)c(C)n2C(=O)c1ccc(Cl)cc1 [INDOMETHACIN] | – | – | – | – | – | – | – | – | – | – | – | – | – | 89.4% | inhibition in vivo at 100 mg/kg (Mus musculus [16]): 12%; inhibition in vivo at 100 mg/kg (Mus musculus [17]): 30.9 to 33.3%; inhibition in vivo at 100 mg/kg (Mus musculus [18]): 18.6%; inhibition in vivo at 100 mg/kg (Mus musculus [19]): 15.6%; inhibition in vivo at 100 mg/kg (Mus musculus [20]): 10.3%; inhibition in vivo at 100 mg/kg (Mus musculus [21]): 5.01%; inhibition in vivo at 50 mg/kg (Mus musculus [22]): 22.8%; inhibition in vivo at 25 mg/kg (Mus musculus [23]): 4.85%
O=C(/C=C/c1ccc(/C=N/NC(=O)c2ccncc2)cc1)c1cccc(Br)c1 | 64 µg/mL (≈ 147 µM) | 64 µg/mL (≈ 147 µM) | 64 µg/mL (≈ 147 µM) | > 64 µg/mL | > 64 µg/mL | > 64 µg/mL | > 64 µg/mL | > 64 µg/mL | > 64 µg/mL | 32 µg/mL (≈ 73.7 µM) | 32 µg/mL (≈ 73.7 µM) | 64 µg/mL (≈ 147 µM) | 64 µg/mL (≈ 147 µM) | 14% | –
Cc1ccc(C(=O)/C=C/c2ccc(/C=N/NC(=O)c3ccncc3)cc2)c(C)c1 | > 64 µg/mL | > 64 µg/mL | > 64 µg/mL | > 64 µg/mL | > 64 µg/mL | > 64 µg/mL | > 64 µg/mL | > 64 µg/mL | > 64 µg/mL | 64 µg/mL (≈ 167 µM) | 64 µg/mL (≈ 167 µM) | > 64 µg/mL | > 64 µg/mL | 58.5% | –
N=C(N)N/N=C/c1ccc(/C=C/C(=O)c2ccccc2Br)cc1 | 8 µg/mL (≈ 21.5 µM) | 4 µg/mL (≈ 10.8 µM) | 8 µg/mL (≈ 21.5 µM) | 8 µg/mL (≈ 21.5 µM) | 8 µg/mL (≈ 21.5 µM) | 16 µg/mL (≈ 43.1 µM) | 4 µg/mL (≈ 10.8 µM) | 8 µg/mL (≈ 21.5 µM) | 8 µg/mL (≈ 21.5 µM) | 8 µg/mL (≈ 21.5 µM) | 8 µg/mL (≈ 21.5 µM) | 8 µg/mL (≈ 21.5 µM) | 16 µg/mL (≈ 43.1 µM) | 78.3% | –
N=C(N)N/N=C/c1ccc(/C=C/C(=O)c2ccc(Cl)cc2Cl)cc1 | 2 µg/mL (≈ 5.54 µM) | 2 µg/mL (≈ 5.54 µM) | 2 µg/mL (≈ 5.54 µM) | 2 µg/mL (≈ 5.54 µM) | 2 µg/mL (≈ 5.54 µM) | 8 µg/mL (≈ 22.1 µM) | 1 µg/mL (≈ 2.77 µM) | 2 µg/mL (≈ 5.54 µM) | 1 µg/mL (≈ 2.77 µM) | 8 µg/mL (≈ 22.1 µM) | 8 µg/mL (≈ 22.1 µM) | 8 µg/mL (≈ 22.1 µM) | 16 µg/mL (≈ 44.3 µM) | 92.5% | inhibition in vivo at 100 mg/kg (Mus musculus [16]): 20.7%; inhibition in vivo at 100 mg/kg (Mus musculus [17]): 34.2 to 43.5%; inhibition in vivo at 100 mg/kg (Mus musculus [18]): 26.4%; inhibition in vivo at 100 mg/kg (Mus musculus [19]): 16.9%; inhibition in vivo at 100 mg/kg (Mus musculus [20]): 11.3%; inhibition in vivo at 100 mg/kg (Mus musculus [21]): 5.52%; inhibition in vivo at 50 mg/kg (Mus musculus [22]): 33.7%; inhibition in vivo at 25 mg/kg (Mus musculus [23]): 17.6%; IC50 at 24 h [24]: 8.7 µg/mL (≈ 24.1 µM); IC50 at 24 h [25]: 15.3 µg/mL (≈ 42.4 µM); IC50 at 24 h [26]: 18.1 µg/mL (≈ 50.1 µM); Ratio (Salmonella typhimurium [13]): 1 - 2; Ratio (Salmonella typhimurium [14]): 1; Ratio (Candida albicans [15]): 2
N=C(N)N/N=C/c1ccc(/C=C/C(=O)c2ccccc2Cl)cc1 | 8 µg/mL (≈ 24.5 µM) | 8 µg/mL (≈ 24.5 µM) | 8 µg/mL (≈ 24.5 µM) | 8 µg/mL (≈ 24.5 µM) | 8 µg/mL (≈ 24.5 µM) | 16 µg/mL (≈ 49 µM) | 8 µg/mL (≈ 24.5 µM) | 8 µg/mL (≈ 24.5 µM) | 8 µg/mL (≈ 24.5 µM) | 8 µg/mL (≈ 24.5 µM) | 8 µg/mL (≈ 24.5 µM) | 8 µg/mL (≈ 24.5 µM) | 16 µg/mL (≈ 49 µM) | 84.1% | –
COc1ccc(C(=O)/C=C/c2ccc(/C=N/NC(=N)N)cc2)cc1 | 16 µg/mL (≈ 49.6 µM) | 16 µg/mL (≈ 49.6 µM) | 16 µg/mL (≈ 49.6 µM) | 8 µg/mL (≈ 24.8 µM) | 16 µg/mL (≈ 49.6 µM) | 32 µg/mL (≈ 99.3 µM) | 2 µg/mL (≈ 6.2 µM) | 8 µg/mL (≈ 24.8 µM) | 8 µg/mL (≈ 24.8 µM) | 16 µg/mL (≈ 49.6 µM) | 8 µg/mL (≈ 24.8 µM) | 16 µg/mL (≈ 49.6 µM) | 16 µg/mL (≈ 49.6 µM) | 57.2% | –
O=C(N/N=C/c1ccc(/C=C/C(=O)c2ccccc2Br)cc1)c1ccncc1 | > 64 µg/mL | 64 µg/mL (≈ 147 µM) | 64 µg/mL (≈ 147 µM) | 32 µg/mL (≈ 73.7 µM) | > 64 µg/mL | > 64 µg/mL | > 64 µg/mL | > 64 µg/mL | 64 µg/mL (≈ 147 µM) | > 64 µg/mL | > 64 µg/mL | > 64 µg/mL | > 64 µg/mL | 48.7% | –
